# What was measured:
# Format in all cases: in vivo, rat
# IL-6-positive cells = assay: Immunohistochemistry, IL-6-positive cells after CCI injury; conditions: single-dose 30 mg kg^-1 i.p.; cortical tissue adjacent to contusion core, 1 day post-injury
# Protocol: (§1) A previously described CCI injury procedure was utilized (Chen et al., 2003). Male Sprague-Dawley rats, which have body weight of 250-300 g, were anaesthetized with sodium pentobarbital (i.p.; 50 mgkg^−1; Rhone Merieux, Harlow, UK) and placed in a stereotaxic frame. A 5-mm craniotomy was performed over the left parietal cortex, centered on the coronal suture and 3 mm lateral to the sagittal suture. Considerable care was taken to avoid injury to the underlying dura. Injury was made using a pneumatic piston with a rounded metal tip (2.5 mm diameter) that was angled 22.5° C. to the vertical so that the tip was perpendicular with the brain surface at the centre of the craniotomy. A velocity of 4 ms^−1 and a deformation depth 2 mm below the dura were used. The bone flap was immediately replaced and sealed, and the scalp was closed with sutures. Body temperature was monitored throughout the surgery by a rectal probe; temperature was maintained at 37.0±0.5° C. using a heated pad. […] Testing after injury was as follows: (1) real-time quantitative RT-PCR analysis for TNF-α, IL-1β and IL-6 mRNA expression at 6 h post-injury (n=7 for each group); (2) FluoroJade B (FJB) staining, TNF-α, IL-1β and IL-6 immunohistochemistry, as well as ELISA at 24 h post-injury to assess degenerative neurons and to determine cytokine expression (n=7 for each group). […]
# IL-6 protein = assay: ELISA, IL-6 protein after CCI injury; conditions: single-dose 30 mg kg^-1 i.p.; ipsilateral cortex, 1 day post-injury; P<0.01
# Protocol: (§2) A previously described CCI injury procedure was utilized (Chen et al., 2003). Male Sprague-Dawley rats, which have body weight of 250-300 g, were anaesthetized with sodium pentobarbital (i.p.; 50 mgkg^−1; Rhone Merieux, Harlow, UK) and placed in a stereotaxic frame. A 5-mm craniotomy was performed over the left parietal cortex, centered on the coronal suture and 3 mm lateral to the sagittal suture. Considerable care was taken to avoid injury to the underlying dura. Injury was made using a pneumatic piston with a rounded metal tip (2.5 mm diameter) that was angled 22.5° C. to the vertical so that the tip was perpendicular with the brain surface at the centre of the craniotomy. A velocity of 4 ms^−1 and a deformation depth 2 mm below the dura were used. […] Body temperature was monitored throughout the surgery by a rectal probe; temperature was maintained at 37.0±0.5° C. using a heated pad. […]
# (§3) Single-dose baicalein (30 mg kg^−1) or a corresponding volume of vehicle was administered i.p. immediately following injury. […] Testing after injury was as follows: (1) real-time quantitative RT-PCR analysis for TNF-α, IL-1β and IL-6 mRNA expression at 6 h post-injury (n=7 for each group); (2) FluoroJade B (FJB) staining, TNF-α, IL-1β and IL-6 immunohistochemistry, as well as ELISA at 24 h post-injury to assess degenerative neurons and to determine cytokine expression (n=7 for each group). […]
# IL-1β protein = assay: ELISA, IL-1β protein after CCI injury; conditions: single-dose 30 mg kg^-1 i.p.; ipsilateral cortex, 1 day post-injury; P<0.01
# Protocol: as §2, §3
# TNF-α-positive cells = assay: Immunohistochemistry, TNF-α-positive cells after CCI injury; conditions: single-dose 30 mg kg^-1 i.p.; cortical tissue adjacent to contusion core, 1 day post-injury
# Protocol: as §1
smiles,measurement,setting,value
O=c1cc(-c2ccccc2)oc2cc(O)c(O)c(O)c12 [baicalein],reduction in IL-6-positive cells relative to vehicle,IL-6-positive cells,33%
same,"IL-6 protein concentration, % of concentration in vehicle-treated rats",IL-6 protein,67%
same,"IL-1β protein concentration, % of concentration in vehicle-treated rats",IL-1β protein,42%
same,reduction in TNF-α-positive cells relative to vehicle,TNF-α-positive cells,37%

# — US20100222421A1, “Usage of Baicalein in the Preparation of a Pharmaceutical Composition for the Treatment of Traumatic Brain Injury” (National Defense Medical Center, priority 2009, published 2010)
